Experimental data from patent US9266876B2 (Actelion Pharmaceuticals Ltd., priority 2012, dated 2016).

What was measured:
human CXCR3A = human CXCR3A (Homo sapiens (Human), UniProt P49682); assay: FLIPR assay; format: cell-based; details: CHO-K1 cells expressing the human CXCR3A coupled to Galpha(16); CXCL10 agonist 20 nM; Fluo-4-AM fluorescence; mean values if determined several times
Outline: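 CHO-K1 cells expressing CXCR3A coupled to Gα16 were loaded with Fluo-4-AM for 1 h in Hepes-buffered HBSS, pH 7.4, with 5 mM probenecid. Compound dilutions were added on the FLIPR, followed by CXCL10 (added as a 20 nM solution). Baseline-subtracted peak fluorescence was fitted to a single-site curve for IC50.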

CXCR3 = CXCR3 (Homo sapiens (Human), UniProt P49682); assay: Receptor internalization assay; format: cell-based; details: human whole blood; final CXCL10 concentration 9 nM; 30 min 37° C.; CXCR3 cell surface expression on CD3 positive cells, flow cytometer; read-out: Internalization IC50
CXCR3, sequence (P49682 whole entry): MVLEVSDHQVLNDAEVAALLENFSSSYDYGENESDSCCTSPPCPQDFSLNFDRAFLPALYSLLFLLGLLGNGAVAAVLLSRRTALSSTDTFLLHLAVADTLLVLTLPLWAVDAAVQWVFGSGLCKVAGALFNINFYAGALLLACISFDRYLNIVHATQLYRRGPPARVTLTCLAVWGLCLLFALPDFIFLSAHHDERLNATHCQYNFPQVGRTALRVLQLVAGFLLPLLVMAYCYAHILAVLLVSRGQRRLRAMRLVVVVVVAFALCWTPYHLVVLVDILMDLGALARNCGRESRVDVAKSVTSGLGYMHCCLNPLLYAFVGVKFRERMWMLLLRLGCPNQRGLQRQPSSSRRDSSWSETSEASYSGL
Outline: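 In human whole blood, compounds were incubated with CXCL10 (9 nM final) for 30 min at 37 °C to drive receptor internalization, then stained with anti-CXCR3/CD3 antibodies and lysed of red cells. Flow cytometry measured mean surface CXCR3 fluorescence on CD3+ cells, and IC50 came from single-site dose-response fits.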

human CXCR3A, sequence (P49682 whole entry): as above

Row | SMILES | IC50 (human CXCR3A) | IC50 (CXCR3)
1 | C[C@@H]1CN(c2scnc2-c2nc3cc(S(C)(=O)=O)ccc3[nH]2)CCN1C(=O)Cn1ccc2cccnc21 [Example 25, 1-{(R)-4-[4-(5-Methanesulfonyl-1H-benzoimidazol-2-yl)-thiazol-5-yl]-2-methyl-piperazin-1-yl}-2-pyrrolo[2,3-b]pyridin-1-yl-ethanone] | 3 nM | 3140 nM
2 | O=C(CN1C(=O)Cc2ccccc21)N1CCN(c2scnc2-c2nc3ccccc3[nH]2)CC1 [Example 68, 1-(2-{4-[4-(1H-Benzoimidazol-2-yl)-thiazol-5-yl]-piperazin-1-yl}-2-oxo-ethyl)-1,3-dihydro-indol-2-one] | 8 nM | 749 nM
3 | Cc1nc(C)n(CC(=O)N2CCN(c3sc(C(F)(F)F)nc3-c3nc4ccccc4[nH]3)C[C@H]2C)n1 [Example 178, 1-{(R)-4-[4-(1H-Benzoimidazol-2-yl)-2-trifluoromethyl-thiazol-5-yl]-2-methyl-piperazin-1-yl}-2-(3,5-dimethyl-[1,2,4]triazol-1-yl)-ethanone] | 2 nM | 224 nM
4 | C[C@@H]1CN(c2sc(C(F)(F)F)nc2-c2nc3ccc(N4CCN(C)CC4)cc3[nH]2)CCN1C(=O)Cn1cccn1 [Example 179, 1-((R)-2-Methyl-4-{4-[6-(4-methyl-piperazin-1-yl)-1H-benzoimidazol-2-yl]-2-trifluoromethyl-thiazol-5-yl}-piperazin-1-yl)-2-pyrazol-1-yl-ethanone] | 2 nM | 138 nM
5 | C[C@@H]1CN(c2sc(C3CC3)nc2-c2nc3ccccc3[nH]2)CCN1C(=O)Cn1cnc2cccnc21 [Example 73, 1-{(R)-4-[4-(1H-Benzoimidazol-2-yl)-2-cyclopropyl-thiazol-5-yl]-2-methyl-piperazin-1-yl}-2-imidazo[4,5-b]pyridin-3-yl-ethanone] | 6 nM | 800 nM
6 | Cc1nc(C)n(CC(=O)N2CCN(c3sc(C(F)(F)F)nc3-c3nc4c(F)cccc4[nH]3)C[C@H]2C)n1 [Example 230, 2-(3,5-Dimethyl-[1,2,4]triazol-1-yl)-1-{(R)-4-[4-(4-fluoro-1H-benzoimidazol-2-yl)-2-trifluoromethyl-thiazol-5-yl]-2-methyl-piperazin-1-yl}-ethanone] | 1 nM | 139 nM
7 | O=C(Cn1ccc2c(Cl)cccc21)N1CCN(c2scnc2-c2nc3ccccc3[nH]2)CC1 [Example 60, 1-{4-[4-(1H-Benzoimidazol-2-yl)-thiazol-5-yl]-piperazin-1-yl}-2-(4-chloro-indol-1-yl)-ethanone] | 8 nM | 1400 nM
8 | C[C@@H]1CN(c2sc(CN(C)C)nc2-c2nc3ccccc3[nH]2)CCN1C(=O)Cn1cnc2cccnc21 [Example 223, 1-{(R)-4-[4-(1H-Benzoimidazol-2-yl)-2-dimethylaminomethyl-thiazol-5-yl]-2-methyl-piperazin-1-yl}-2-imidazo[4,5-b]pyridin-3-yl-ethanone] | 27 nM | 1130 nM
9 | C[C@@H]1CN(c2scnc2-c2nc3cc(Cl)ccc3[nH]2)C[C@H](C)N1C(=O)Cn1cnc2cccnc21 [Example 72, 1-{(2S,6R)-4-[4-(5-Chloro-1H-benzoimidazol-2-yl)-thiazol-5-yl]-2,6-dimethyl-piperazin-1-yl}-2-imidazo[4,5-b]pyridin-3-yl-ethanone] | 1 nM | 231 nM
10 | Cn1c(=O)n(CC(=O)N2CCN(c3scnc3-c3nc4ccccc4[nH]3)CC2)c2ccccc21 [Example 3, 1-(2-{4-[4-(1H-Benzoimidazol-2-yl)-thiazol-5-yl]-piperazin-1-yl}-2-oxo-ethyl)-3-methyl-1,3-dihydro-benzoimidazol-2-one] | 15 nM | 1200 nM
11 | C[C@@H]1CN(c2scnc2-c2nc3ccccc3[nH]2)CCN1C(=O)Cn1ncc2cccnc21 [Example 115, 1-{(R)-4-[4-(1H-Benzoimidazol-2-yl)-thiazol-5-yl]-2-methyl-piperazin-1-yl}-2-pyrazolo[3,4-b]pyridin-1-yl-ethanone] | 1 nM | 809 nM

Other lines, results leading:

Row | IC50 (human CXCR3A) | IC50 (CXCR3) | SMILES
12 | 2 nM | 72 nM | Cc1nn(CC(=O)N2CCN(c3sc(C(F)(F)F)nc3-c3nc4ccccc4[nH]3)C[C@H]2C)c(C)c1CN(C)C [Example 214, 1-{(R)-4-[4-(1H-Benzoimidazol-2-yl)-2-trifluoromethyl-thiazol-5-yl]-2-methyl-piperazin-1-yl}-2-(4-dimethylaminomethyl-3,5-dimethyl-pyrazol-1-yl)-ethanone]
13 | 6 nM | 822 nM | Cc1nc(C)n(CC(=O)N2CCN(c3sc(C(F)(F)F)nc3-c3nc4ccc(-n5cncn5)cc4[nH]3)C[C@H]2C)n1 [Example 234, 2-(3,5-Dimethyl-[1,2,4]triazol-1-yl)-1-{(R)-2-methyl-4-[4-(6-[1,2,4]triazol-1-yl-1H-benzoimidazol-2-yl)-2-trifluoromethyl-thiazol-5-yl]-piperazin-1-yl}-ethanone]
14 | 21 nM | 5010 nM | C[C@@H]1CN(c2sc(C(F)(F)F)nc2-c2nc3ccccc3[nH]2)CCN1C(=O)CN1CCc2[nH]ncc2C1 [Example 217, 1-{(R)-4-[4-(1H-Benzoimidazol-2-yl)-2-trifluoromethyl-thiazol-5-yl]-2-methyl-piperazin-1-yl}-2-(1,4,6,7-tetrahydro-pyrazolo[4,3-c]pyridin-5-yl)-ethanone]
15 | 3 nM | 663 nM | Cc1cccc2oc(=O)n(CC(=O)N3CCN(c4scnc4-c4nc5ccccc5[nH]4)C[C@H]3C)c12 [Example 152, 3-(2-{(R)-4-[4-(1H-Benzoimidazol-2-yl)-thiazol-5-yl]-2-methyl-piperazin-1-yl}-2-oxo-ethyl)-4-methyl-3H-benzooxazol-2-one]
16 | 23 nM | 531 nM | Cc1nc(C)n(CC(=O)N2CCN(c3sc(C(F)(F)F)nc3-c3nc4ccc(CCN5CCCC5)cc4[nH]3)C[C@H]2C)n1 [Example 244, 2-(3,5-Dimethyl-[1,2,4]triazol-1-yl)-1-((R)-2-methyl-4-{4-[6-(2-pyrrolidin-1-yl-ethyl)-1H-benzoimidazol-2-yl]-2-trifluoromethyl-thiazol-5-yl}-piperazin-1-yl)-ethanone]
17 | 3 nM | 3780 nM | C[C@@H]1CN(c2scnc2-c2nc3ccccc3[nH]2)CCN1C(=O)Cc1cccc2ccccc12 [Example 118, 1-{(R)-4-[4-(1H-Benzoimidazol-2-yl)-thiazol-5-yl]-2-methyl-piperazin-1-yl}-2-naphthalen-1-yl-ethanone]
18 | 5 nM | 2100 nM | C[C@@H]1CN(c2sc(C(F)(F)F)nc2-c2nc3ccccc3[nH]2)CCN1C(=O)Cc1ccccc1-n1cccn1 [Example 203, 1-{(R)-4-[4-(1H-Benzoimidazol-2-yl)-2-trifluoromethyl-thiazol-5-yl]-2-methyl-piperazin-1-yl}-2-(2-pyrazol-1-yl-phenyl)-ethanone]
19 | 4 nM | 1610 nM | C[C@@H]1CN(c2scnc2-c2nc3ccccc3[nH]2)CCN1C(=O)Cc1ccccc1-n1nccn1 [Example 186, 1-{(R)-4-[4-(1H-Benzoimidazol-2-yl)-thiazol-5-yl]-2-methyl-piperazin-1-yl}-2-(2-[1,2,3]triazol-2-yl-phenyl)-ethanone]
